Laboratory results from patent US7442501B2, “SQV nucleic acids and polypeptides” (Massachusetts Institute of Technology, priority 2002, dated 2008).

Assays:
chondroitin synthase [1] = molecular target: T1, chondroitin synthase (Caenorhabditis elegans, UniProt Q7Z1Z1); assay: GalNAcT (N-acetylgalactosamyl transferase) assay of chondroitin synthase activity in worm protein extracts; format: biochemical
T1 construct: wild-type (N2) animals were used to prepare worm protein extracts; from tissue; host or cells: whole C. elegans hermaphrodites (young adults), sonicated protein extract
T1 sequence (Q7Z1Z1 1-736): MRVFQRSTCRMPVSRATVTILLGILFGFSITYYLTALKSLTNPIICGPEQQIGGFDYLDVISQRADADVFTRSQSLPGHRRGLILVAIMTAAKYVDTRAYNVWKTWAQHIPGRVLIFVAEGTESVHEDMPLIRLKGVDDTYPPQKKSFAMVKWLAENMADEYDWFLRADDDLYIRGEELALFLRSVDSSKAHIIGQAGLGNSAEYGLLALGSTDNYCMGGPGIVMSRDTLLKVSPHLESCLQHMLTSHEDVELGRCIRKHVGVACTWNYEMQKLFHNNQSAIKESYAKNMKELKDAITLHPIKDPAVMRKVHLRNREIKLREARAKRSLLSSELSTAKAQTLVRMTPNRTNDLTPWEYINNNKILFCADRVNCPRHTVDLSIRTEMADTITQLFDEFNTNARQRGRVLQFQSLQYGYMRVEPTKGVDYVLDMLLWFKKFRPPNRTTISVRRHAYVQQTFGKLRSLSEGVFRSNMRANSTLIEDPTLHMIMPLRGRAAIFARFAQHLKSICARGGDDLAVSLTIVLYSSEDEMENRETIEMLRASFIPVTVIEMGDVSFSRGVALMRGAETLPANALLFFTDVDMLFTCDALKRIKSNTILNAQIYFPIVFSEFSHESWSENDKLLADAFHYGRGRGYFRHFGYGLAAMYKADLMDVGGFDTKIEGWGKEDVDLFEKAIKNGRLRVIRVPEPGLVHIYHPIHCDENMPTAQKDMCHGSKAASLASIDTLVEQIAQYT
Procedure: (§1) sqv-5(n3611), sqv-5(n3611)/hT2, and wild-type (N2) animals were used to prepare worm protein extracts. These extracts were tested for chondroitin synthase activity using standard methods, for example, in DeAngelis et al., (J. Biol. Chem. 27:24124-24129, 2000).
(§2) A desulfated chondroitin acceptor was used for the GalNAcT (N-acetylgalactosamyl transferase) assay. Desulfated and β-glucuronidase-treated chondroitin acceptor was used for the GlcAT (glucuronyl transferase) assay.
(§3) The enzymatic activity of SQV-5 was assayed as follows. SQV-5(n3611), sqv-5(n3611)/hT2, and wild-type N2 hermaphrodites were picked as L4 larvae by visual examination of the vulva using a dissecting microscope. The worms staged were allowed to grow for an additional twenty-three to twenty-seven hours at 22° C., re-examined, then transferred to 1.7-ml plastic tubes containing sterile water. The staged worms were washed once with water and twice with 50 mM Tris, pH 7.5, then frozen in a 50 μl volume using liquid nitrogen, and stored at −70° C.
(§4) Worm extracts were assayed for GIcAT glucoronosyltransferase activity by combining 1.3×10^5 cpm UDP-^3H-glucuronic acid donor (NEN), 6 μg β-glucuronidase-treated chondroitin acceptor, and 2.7 μg worm extract in a 25 μl reaction volume containing 0.05% Triton X-100, 10 mM MnCl2, and 100 μM ATP, pH 6.5. GalNAcT activity was detected by combining 1.3 to 3×10^5 cpm UDP-^3H-GalNAc donor (NEN), 12 μg chondroitin acceptor, and 6.7 μg worm extract in a 25 μl reaction volume containing 0.05% Triton X-100 and 10 mM MnCl2, pH 6.5. […] Pelleted material was resuspended in water and counted by liquid scintillation.
(§5) The chondroitin acceptor used was prepared as follows. […] Uronic acid concentration of both preparations was determined by the Carbazole method (Bitter, et al., Anal. Biochem. 4:330-334, 1962).

chondroitin synthase [2] = assay: as above; format: biochemical; details: extract genotype sqv-5/sqv-5 (sqv-5(n3611))
Procedure: as §1, §2, §3, §4, §5

**Q.** How did the CPM (chondroitin synthase [1]; extract genotype +/+ (wild-type)) turn out when `CC(=O)N[C@H]1[C@@H](OP(=O)(O)OP(=O)(O)OC[C@H]2O[C@@H](n3ccc(=O)[nH]c3=O)[C@H](O)[C@@H]2O)O[C@H](CO)[C@H](O)[C@@H]1O` [UDP-N-acetylgalactosamine] was run?
**A.** 171 CPM

**Q.** What about the CPM (chondroitin synthase [1]; extract genotype +/sqv-5 (sqv-5(n3611)/hT2)) of the same molecule?
**A.** 134 CPM

**Q.** What about the CPM (chondroitin synthase [2]) of the same molecule?
**A.** <0 CPM
